Measured values: EP4670722A1, “PROPHYLACTIC OR AMELIORATING AGENT FOR CELL AGING” (Kyowa Pharma Chemical Co., Ltd., priority 2023, dated 2024)

Tested on: GLS1
Assay: GLS1 expression analysis (ELISA) in BV2
Assay type: cell-based
Conditions: mouse microglial cells (BV2), at least 200 µg/mL or more, 24 hours; effect increased from 200 to 1000 µg/mL; Fig. 12
Protocol: Mouse microglial cells (BV2) were cultured in glutamine-containing DMEM. The cultured cells were collected by trypsin treatment. The collected cells were seeded in a 6-well plate at a cell density of 4 x 10^5 cells/well and cultured for 24 hours in a 37°C, 5% CO2 incubator. After culturing, glutamine-free DMEM containing the test sample (2'-FL and lactose) at 50 µg/mL, 200 µg/mL, or 1000 µg/mL was added, and cultured for 24 hours in a 37°C, 5% CO2 incubator. The culture supernatant was removed, the cells were washed twice with PBS, and 0.20 mL of RIPA buffer was added to extract total protein. Protein in each protein extract was quantified by the Bradford assay.
Protein extracts were collected in the same manner as in [Example 10-1 B. Human gastric undifferentiated carcinoma cells (KKLS)], [Example 10-1 C. Mouse microglial cells (BV2)], [Example 10-1 D. Human gingival fibroblasts (Gin-1)], and [Example 10-1 E. Human umbilical vein endothelial cells (HUVEC)], respectively, except that a medium same as the above-mentioned medium but not containing the test sample was used instead of the medium containing the test sample, and protein in each protein extract was quantified by the Bradford assay.
An ELISA method was performed using an antibody against GLS1 to measure the amount of GLS1 in the samples. […]

## C[C@@H]1O[C@@H](O[C@H]2[C@H](O[C@H]3[C@H](O)[C@@H](O)C(O)O[C@@H]3CO)O[C@H](CO)[C@H](O)[C@@H]2O)[C@@H](O)[C@H](O)[C@@H]1O (stereo partly shown) [2'-FL, 2'-fucosyllactose]
  GLS1 expression: suppressed GLS1 expression
